# Test results published in US11040028B2, “Penicinotam derivative, preparation method and use thereof” (OCEAN UNIVERSITY OF CHINA, priority 2017, dated 2021).
# Key:
# Assay type in all cases: cell-based
# [1] = test system: cardiac fibroblast RAT-iCell-C002; assay: Anti-fibrosis activity test: inhibition of proliferation of cardiac fibroblast RAT-iCell-C002 (CCK-8); conditions: Cardiac fibroblast, 48 h, cardiac fibroblast RAT-iCell-C002, CCK-8, 48 hours
# In short: (§1)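 Cells seeded at 2×10^4 cells/mL, adhered 24 h, then exposed to compound concentrations in triplicate for 48 h at 37° C, 5% CO2. CCK-8 added for 2 h, absorbance at 450 nm; inhibition = (1−Ai/Ao)×100% versus blank control, IC50 calculated.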
# [2] = test system: human lung fibroblasts HFL1; assay: Anti-fibrosis activity test: inhibition of proliferation of human lung fibroblasts HFL1 (CCK-8); conditions: Homo sapiens, HFL1, 48 h, human lung fibroblasts HFL1, CCK-8, 48 hours
# In short: as §1
# [3] = test system: human fibrosarcoma cells HT-1080; assay: Anti-fibrosis activity test: inhibition of proliferation of human fibrosarcoma cells HT-1080 (CCK-8); conditions: Homo sapiens, HT-1080, 48 h, human fibrosarcoma cells HT-1080, CCK-8, 48 hours
# In short: as §1
# BHK-21 cells = assay: Anti-fibrosis activity test: inhibition of BHK-21 cell proliferation (CCK-8); conditions: Mesocricetus auratus, BHK-21, 48 h, CCK-8, 48 hours after administration
# In short: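 Read-out: CCK-8 absorbance at 450 nm after 2 h, giving proliferation inhibition (1−Ai/Ao)×100% versus blank control, from which IC50 was derived. Cells had been treated with compounds for 48 h after 24 h adherence at 37° C. Pirfenidone served as positive control.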
# [4] = test system: human embryonic lung fibroblast IMR-90; assay: Anti-fibrosis activity test: inhibition of proliferation of human embryonic lung fibroblast IMR-90 (CCK-8); conditions: human embryonic lung fibroblast IMR-90, CCK-8, 48 hours
# In short: as §1
# [5] = test system: human hepatic stellate cells LX-2; assay: Anti-fibrosis activity test: inhibition of proliferation of human hepatic stellate cells LX-2 (CCK-8); conditions: Homo sapiens, 48 h, human hepatic stellate cells LX-2, CCK-8, 48 hours
# In short: as §1
# NF-κB = assay: Immunological activity test: inhibition of NF-κB activity; conditions: initial concentration of 30 μM; a/b isomers given as first/second symbol; read-out: IC50 (μM), inhibitory activity against NF-κB
# From the text: Main references for immunological activity test of the compounds of the present application includes: Vogl, S.; Atanasov, A. G.; Binder, M.; Bulusu, M.; Zehl, M.; Fakhrudin, N.; Heiss, E. H.; Picker, P.; Wawrosch, C.; Saukel, J.; Reznicek, G.; Urban, E.; Bochkov, V.; Dirsch, V. M.; Kopp, B. J. Evid-Based Complementary Alern. Med. 2013, ID 395316. Commercially available parthenolide was utilized as a positive control.
# The ability of the compounds of the present application to inhibit NF-κB activity was tested at an initial concentration of 30 μM.
# The assay data for the compounds of the present application were further analyzed to determine their IC50 values.
# [6] = test system: human dermal fibroblasts CCC-ESF-1; assay: Anti-fibrosis activity test: inhibition of proliferation of human dermal fibroblasts CCC-ESF-1 (CCK-8); conditions: Fibroblast; human dermal fibroblasts CCC-ESF-1, CCK-8, 48 hours
# In short: as §1
IC50 [3],IC50 (NF-κB),Compound,IC50 [1],IC50 [2],IC50 (BHK-21 cells),IC50 [4],IC50 [5],IC50 [6]
0.05 to 5 mM,0.1 to 1 µM,"N#Cc1ccc2c(OCc3ccccc3F)c3c(nc2c1)-c1cccn1C3=O [Compound 516b, 9-((2-fluorobenzyl)oxy)-10-oxo-10H-pyrrolizino[1,2-b]quinoline-6-carbonitrile]",0.05 to 5 mM,0.05 to 5 mM,0.05 to 5 mM,0.05 to 5 mM,0.05 to 5 mM,0.05 to 5 mM
0.05 to 5 mM,0.1 to 1 µM,"O=C1c2c(nc3cc(C(F)(F)F)ccc3c2OCc2ccccc2Cl)-c2cccn21 [Compound 546b, 9-((2-chlorobenzyl)oxy)-6-(trifluoromethyl)-10H-pyrrolizino[1,2-b]quinolin-10-one]",0.05 to 5 mM,0.05 to 5 mM,0.05 to 5 mM,0.05 to 5 mM,0.05 to 5 mM,0.05 to 5 mM
0.05 to 5 mM,0.1 to 1 µM,"O=C1c2c(n(-c3ccc(F)cc3)c3ccccc3c2=O)-c2cccn21 [Compound 18a, 4-(4-Fluorophenyl)-9H-pyrrolizino[1,2-b]quinoline-9,10(4H)-dione]",0.05 to 5 mM,0.05 to 5 mM,< 0.05 mM,0.05 to 5 mM,5 to 20 mM,0.05 to 5 mM
0.05 to 5 mM,1 to 10 µM,"O=C1c2c(nc3ccccc3c2Oc2ccc(Cl)cc2)-c2cccn21 [Compound 34b, 9-(4-chlorophenoxy)-10H-pyrrolizino[1,2-b]quinolin-10-one]",0.05 to 5 mM,0.05 to 5 mM,0.05 to 5 mM,0.05 to 5 mM,0.05 to 5 mM,< 0.05 mM
0.05 to 5 mM,1 to 10 µM,"O=C1c2c(nc3ccc(F)cc3c2OCc2ccc(Cl)cc2)-c2cccn21 [Compound 618b, 9-((4-chlorobenzyl)oxy)-7-fluoro-10H-pyrrolizino[1,2-b]quinolin-10-one]",0.05 to 5 mM,0.05 to 5 mM,0.05 to 5 mM,0.05 to 5 mM,0.05 to 5 mM,0.05 to 5 mM
0.05 to 5 mM,10 to 50 µM,"O=C1c2c(n(Cc3ccc(Cl)cc3)c3cc(C(F)(F)F)ccc3c2=O)-c2cccn21 [Compound 544a, 4-(4-Chlorobenzyl)-6-(trifluoromethyl)-9H-pyrrolizino[1,2-b]quinoline-9,10(4H)-dione]",0.05 to 5 mM,0.05 to 5 mM,< 0.05 mM,0.05 to 5 mM,0.05 to 5 mM,0.05 to 5 mM
5 to 20 mM,1 to 10 µM,"O=C1c2c(n(Cc3cccc(Cl)c3)c3cc(C(F)(F)F)ccc3c2=O)-c2cccn21 [Compound 545a, 4-(3-Chlorobenzyl)-6-(trifluoromethyl)-9H-pyrrolizino[1,2-b]quinoline-9,10(4H)-dione]",0.05 to 5 mM,0.05 to 5 mM,0.05 to 5 mM,0.05 to 5 mM,0.05 to 5 mM,0.05 to 5 mM
0.05 to 5 mM,1 to 10 µM,"O=C1c2c(nc3ccc(F)cc3c2OCc2ccc(F)cc2)-c2cccn21 [Compound 617b, 7-fluoro-9-((4-fluorobenzyl)oxy)-10H-pyrrolizino[1,2-b]quinolin-10-one]",0.05 to 5 mM,0.05 to 5 mM,0.05 to 5 mM,0.05 to 5 mM,0.05 to 5 mM,0.05 to 5 mM
0.05 to 5 mM,1 to 10 µM,"N#Cc1ccc2c(=O)c3c(n(Cc4ccc(F)cc4)c2c1)-c1cccn1C3=O [Compound 514a, 4-(4-Fluorobenzyl)-9,10-dioxo-4,10-dihydro-9H-pyrrolizino[1,2-b]quinoline-6-carbonitrile]",0.05 to 5 mM,0.05 to 5 mM,< 0.05 mM,0.05 to 5 mM,0.05 to 5 mM,0.05 to 5 mM
5 to 20 mM,1 to 10 µM,"N#Cc1ccc2c(=O)c3c(n(Cc4cccc(F)c4)c2c1)-c1cccn1C3=O [Compound 515a, 4-(3-Fluorobenzyl)-9,10-dioxo-4,10-dihydro-9H-pyrrolizino[1,2-b]quinoline-6-carbonitrile]",0.05 to 5 mM,0.05 to 5 mM,0.05 to 5 mM,0.05 to 5 mM,0.05 to 5 mM,0.05 to 5 mM
0.05 to 5 mM,1 to 10 µM,"O=C1c2c(nc3cc(C(F)(F)F)ccc3c2OCc2cccc(Cl)c2)-c2cccn21 [Compound 545b, 9-((3-chlorobenzyl)oxy)-6-(trifluoromethyl)-10H-pyrrolizino[1,2-b]quinolin-10-one]",0.05 to 5 mM,0.05 to 5 mM,0.05 to 5 mM,0.05 to 5 mM,0.05 to 5 mM,0.05 to 5 mM
0.05 to 5 mM,1 to 10 µM,"O=C1c2c(nc3ccccc3c2Oc2ccc(Br)cc2)-c2cccn21 [Compound 64b, 9-(4-bromophenoxy)-10H-pyrrolizino[1,2-b]quinolin-10-one]",0.05 to 5 mM,0.05 to 5 mM,0.05 to 5 mM,0.05 to 5 mM,0.05 to 5 mM,0.05 to 5 mM
0.05 to 5 mM,1 to 10 µM,"O=C1c2c(n(Cc3cc(C(F)(F)F)cc(C(F)(F)F)c3)c3ccc(F)cc3c2=O)-c2cccn21 [Compound 623a, 4-(3,5-Bis(trifluoromethyl)benzyl)-7-fluoro-9H-pyrrolizino[1,2-b]quinoline-9,10(4H)-dione]",0.05 to 5 mM,0.05 to 5 mM,< 0.05 mM,0.05 to 5 mM,0.05 to 5 mM,< 0.05 mM
0.05 to 5 mM,0.1 to 1 µM,"O=C1c2c(n(-c3ccc(Cl)cc3)c3ccccc3c2=O)-c2cccn21 [Compound 34a, 4-(4-Chlorophenyl)-9H-pyrrolizino[1,2-b]quinoline-9,10(4H)-dione]",0.05 to 5 mM,0.05 to 5 mM,< 0.05 mM,0.05 to 5 mM,0.05 to 5 mM,5 to 20 mM
0.05 to 5 mM,1 to 10 µM,"N#Cc1ccc2c(OCc3ccc(F)cc3)c3c(nc2c1)-c1cccn1C3=O [Compound 514b, 9-((4-fluorobenzyl)oxy)-10-oxo-10H-pyrrolizino[1,2-b]quinoline-6-carbonitrile]",0.05 to 5 mM,0.05 to 5 mM,0.05 to 5 mM,0.05 to 5 mM,0.05 to 5 mM,0.05 to 5 mM
0.05 to 5 mM,1 to 10 µM,"O=C1c2c(n(Cc3ccc(Cl)cc3F)c3ccc(F)cc3c2=O)-c2cccn21 [Compound 621a, 4-(4-Chloro-2-fluorobenzyl)-7-fluoro-9H-pyrrolizino[1,2-b]quinoline-9,10(4H)-dione]",0.05 to 5 mM,0.05 to 5 mM,0.05 to 5 mM,0.05 to 5 mM,0.05 to 5 mM,0.05 to 5 mM
0.05 to 5 mM,1 to 10 µM,"N#Cc1ccc2c(c1)c(=O)c1c(n2Cc2ccc(C(F)(F)F)cc2)-c2cccn2C1=O [Compound 627a, 9,10-Dioxo-4-(4-(trifluoromethyl)benzyl)-4,10-dihydro-9H-pyrrolizino[1,2-b]quinoline-7-carbonitrile]",0.05 to 5 mM,0.05 to 5 mM,< 0.05 mM,0.05 to 5 mM,0.05 to 5 mM,0.05 to 5 mM
0.05 to 5 mM,1 to 10 µM,"N#Cc1ccc2nc3c(c(OCc4ccc(Cl)cc4)c2c1)C(=O)n1cccc1-3 [Compound 625b, 9-((4-chlorobenzyl)oxy)-10-oxo-10H-pyrrolizino[1,2-b]quinoline-7-carbonitrile]",0.05 to 5 mM,0.05 to 5 mM,0.05 to 5 mM,0.05 to 5 mM,0.05 to 5 mM,0.05 to 5 mM
0.05 to 5 mM,1 to 10 µM,"N#Cc1ccc2c(c1)c(=O)c1c(n2Cc2ccc(-c3ccccc3C#N)cc2)-c2cccn2C1=O [Compound 629a, 4-((2′-Cyano-[1,1′-biphenyl]-4-yl)methyl)-9,10-dioxo-4,10-dihydro-9H-pyrrolizino[1,2-b]quinoline-7-carbonitrile]",0.05 to 5 mM,0.05 to 5 mM,< 0.05 mM,0.05 to 5 mM,0.05 to 5 mM,< 0.05 mM
0.05 to 5 mM,1 to 10 µM,"N#Cc1ccc(Cn2c3c(c(=O)c4cc(C#N)ccc42)C(=O)n2cccc2-3)cc1 [Compound 626a, 4-(4-Cyanobenzyl)-9,10-dioxo-4,10-dihydro-9H-pyrrolizino[1,2-b]quinoline-7-carbonitrile]",0.05 to 5 mM,0.05 to 5 mM,0.05 to 5 mM,0.05 to 5 mM,0.05 to 5 mM,< 0.05 mM
